Where two headings read alike, the source gives them in different places.
Tests used:
[1] = molecular target: recombinant human NF-kappaB-inducing kinase (NIK/MAP3K14) (Homo sapiens (Human), UniProt Q99558); test: Inhibition of auto-phosphorylation of recombinant human NIK/MAP3K14 activity (AlphaScreen); assay type: biochemical; conditions: averaged values over all measurements on all batches
Description: Inhibition of auto-phosphorylation of recombinant human NF-kappaB-inducing kinase (NIK/MAP3K14) activity (AlphaScreen®)
NIK/MAP3K14 auto-phosphorylation activity was measured using the AlphaScreen® (αscreen) format (Perkin Elmer). All compounds tested were dissolved in dimethyl sulfoxide (DMSO) and further dilutions were made in assay buffer. Final DMSO concentration was 1% (v/v) in assays. Assay buffer was 50 mM Tris pH 7.5 containing 1 mM EGTA (ethylene glycol tetraacetic acid), 1 mM DTT (dithiothreitol), 0.1 mM Na3VO4, 5 mM MgCl2, 0.01% Tween® 20. Assays were carried out in 384 well Alphaplates (Perkin Elmer). Incubations consisted of compound, 25 microM Adenosine-5′-triphosphate (ATP), and 0.2 nM NIK/MAP3K14. Incubations were initiated by addition of GST-tagged NIK/MAP3K14 enzyme, carried out for 1 h at 25° C. and terminated by addition of stop buffer containing anti-phospho-IKK Ser176/180 antibody. Protein A Acceptor and Glutathione-Donor beads were added before reading using an EnVision® Multilabel Plate Reader (Perkin Elmer). Signal obtained in the wells containing blank samples was subtracted from all other wells and IC50's were determined by fitting a sigmoidal curve to % inhibition of control versus Log10 compound concentration.

[2] = tested on: P-IKKα levels in L363 cells; test: Effect of compounds on P-IKKα levels in L363 (NIK translocated multiple myeloma) cells; assay type: cell-based, human; conditions: averaged values, read-out: Inhibition of pIKKα_L-363 (IC50 (nM))
Description: Effect of compounds on P-IKKα levels in L363 (NIK translocated multiple myeloma) cells
All compounds tested were dissolved in DMSO and further dilutions were made in culture medium. Final DMSO concentration was 1% (v/v) in cell assays. The human L363 cells (ATCC) were cultured in RPMI 1640 medium supplemented with GlutaMax and 10% fetal calf serum (PAA). Cells were routinely maintained at densities of 0.2×10^6 cells per ml-1×10^6 cells per ml at 37° C. in a humidified 5% CO2 atmosphere. Cells were passaged twice a week splitting back to obtain the low density. Cells were seeded in 96 well plates (Nunc 167008) at 2×10^6 per ml media in a volume of 75 μl per well plus 25 μl 1 μg/ml recombinant human B-cell activating factor (BAFF/BLyS/TNFSF13B). Seeded cells were incubated at 37° C. in a humidified 5% CO2 atmosphere for 24 hr. Drugs and/or solvents were added (20 μl) to a final volume of 120 μl. Following 2 hr treatment plates were removed from the incubator and cell lysis was achieved by the addition of 30 μl 5× lysis buffer followed by shaking on a plate shaker at 4° C. for 10 min. At the end of this incubation lysed cells were centrifuged at 800×g for 20 min at 4° C. and the lysate was assessed for P-IKKα levels by sandwich immuno-assay carried out in anti-rabbit antibody coated Mesoscale plates. Within an experiment, the results for each treatment were the mean of 2 replicate wells. For initial screening purposes, compounds were tested using an 8 point dilution curve (serial 1:3 dilutions). For each experiment, controls (containing MG132 and BAFF but no test drug) and a blank incubation (containing MG132 and BAFF and 10 μM ADS125117, a test concentration known to give full inhibition) were run in parallel. The blank incubation value was subtracted from all control and sample values. To determine the IC50 a sigmoidal curve was fitted to the plot of % inhibition of control P-IKKα levels versus Log10 compound concentration.

JJN-3 cells = test: Antiproliferative activity on JJN-3 (NIK translocated) multiple myeloma cells (CellTiter-Glo); assay type: cell-based, human; conditions: JJN-3 (NIK translocated) cells, 96 hr, averaged values, read-out: JJN-3 Proliferation inhibition (IC50 (nM))
Description: (§1) Determination of antiproliferative activity on JJN-3 (NIK translocated) and KMS12-BM (NIK WT) multiple myeloma cells
(§2) All compounds tested were dissolved in DMSO and further dilutions were made in culture medium. Final DMSO concentration was 0.3% (v/v) in cell proliferation assays. Viability was assessed using CellTiter-Glo cell viability assay kit (Promega). The human JJN-3 and KMS12-BM cells (DSMZ) were cultured in RPMI 1640 medium supplemented with 2 mM L-glutamine, and 10% fetal calf serum (PAA). Cells were routinely kept as suspension cells at 37° C. in a humidified 5% CO2 atmosphere. Cells were passaged at a seeding density of 0.2×10^6/ml twice a week. Cells were seeded in black tissue culture treated 96-well plates (Perkin Elmer). Densities used for plating ranged from 15000 (JJN3) to 20000 (KMS12BM) cells per well in a total volume of 135 μl medium. Drugs and/or solvents were added (15 μl) to a final volume of 150 μl. Following 96 hr of treatment, plates were removed from the incubator and allowed to equilibrate to room temperature for approx 10 min. 75 μl CellTiter-Glo reagent was added to each well that was then covered (Perkin Elmer Topseal) and shaken on plate shaker for 10 min. Luminescence was measured on a HTS Topcount (Perkin Elmer). Within an experiment, the results for each treatment were the mean of 2 replicate wells. For initial screening purposes, compounds were tested using a 9 point dilution curve (serial 1:3 dilutions). For each experiment, controls (containing no drug) and a blank incubation (containing cells read at the time of compound addition) were run in parallel. The blank value was subtracted from all control and sample values. For each sample, the mean value for cell growth (in relative light units) was expressed as a percentage of the mean value for cell growth of the control.

KMS12-BM cells = test: Antiproliferative activity on KMS12-BM (NIK WT) multiple myeloma cells (CellTiter-Glo); assay type: cell-based, human; conditions: KMS12-BM (NIK WT) cells, 96 hr, averaged values, read-out: KMS-12 Proliferation inhibition (IC50 (nM))
Description: as §1, §2

[3] = Homo sapiens, L-363, L363 cells

recombinant human NF-kappaB-inducing kinase (NIK/MAP3K14), sequence (Q99558 whole entry): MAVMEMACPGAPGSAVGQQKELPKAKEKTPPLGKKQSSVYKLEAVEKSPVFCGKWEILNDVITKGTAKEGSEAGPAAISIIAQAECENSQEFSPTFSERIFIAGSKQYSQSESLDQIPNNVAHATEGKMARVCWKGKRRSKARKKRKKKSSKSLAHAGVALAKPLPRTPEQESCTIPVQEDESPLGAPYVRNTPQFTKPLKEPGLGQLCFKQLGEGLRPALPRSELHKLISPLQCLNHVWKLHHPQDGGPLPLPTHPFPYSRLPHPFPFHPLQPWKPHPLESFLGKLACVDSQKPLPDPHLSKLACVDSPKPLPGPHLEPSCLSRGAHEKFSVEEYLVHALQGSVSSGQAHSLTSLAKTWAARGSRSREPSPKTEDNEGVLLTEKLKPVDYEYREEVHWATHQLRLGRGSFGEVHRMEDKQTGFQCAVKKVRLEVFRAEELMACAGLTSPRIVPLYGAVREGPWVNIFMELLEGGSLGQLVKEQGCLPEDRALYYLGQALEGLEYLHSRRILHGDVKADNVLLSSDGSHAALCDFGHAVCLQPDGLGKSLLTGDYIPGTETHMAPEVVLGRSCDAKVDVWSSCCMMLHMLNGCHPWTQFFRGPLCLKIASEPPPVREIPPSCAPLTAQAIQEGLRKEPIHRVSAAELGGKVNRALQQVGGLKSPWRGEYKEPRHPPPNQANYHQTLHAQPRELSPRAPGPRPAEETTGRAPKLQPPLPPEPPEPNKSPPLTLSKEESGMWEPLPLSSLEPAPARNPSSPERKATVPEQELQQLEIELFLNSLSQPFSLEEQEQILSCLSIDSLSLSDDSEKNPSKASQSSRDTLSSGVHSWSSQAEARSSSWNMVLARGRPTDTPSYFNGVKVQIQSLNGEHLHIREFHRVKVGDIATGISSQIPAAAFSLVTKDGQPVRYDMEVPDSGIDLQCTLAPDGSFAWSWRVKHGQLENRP

Compound	IC50 [1] [nM]	IC50 [2, 3] [nM]	IC50 (JJN-3 cells; Homo sapiens, JJN-3, 96 h) [nM]	IC50 (KMS12-BM cells; Homo sapiens, KMS-12-BM, 96 h) [nM]	IC50 (JJN-3 cells) [nM]	IC50 (KMS12-BM cells) [nM]	IC50 ([2]; L363 cells) [nM]
Cc1cc(Nc2nccc(-c3cc(C#N)c4c(c3)[C@@](C)(CO)CN4)n2)n(CC2CCCOC2)n1 (mixture of isomers) [Compound 94]	5.6	7	178	4170			
Cc1cc(Nc2nccc(-c3cc(C#N)c4c(c3)[C@@](C)(CO)CN4)n2)n(CC2CCN(C)C(=O)C2)n1 (mixture of isomers) [Compound 171]	6.2	1440					
Cc1cc(Nc2nccc(-c3cc(C#N)c4c(c3)[C@@](C)(CO)CN4)n2)n(CC2CCn3ccnc3C2)n1 (mixture of isomers) [Compound 202]	7.2	1950					
CN1CCOCC1c1cc(Nc2nccc(-c3cc(C#N)c4c(c3)[C@@](C)(CO)CN4)n2)nn1C (mixture of isomers) [Compound 215]	168	3490					
Cc1nn(C)cc1Nc1nccc(-c2cc(C#N)c3c(c2)C(C)(CO)CN3)n1 (stereo not shown) [Compound 7]		2	112	~1740			
COCCCn1nc(C)cc1Nc1nccc(-c2cc(C#N)c3c(c2)[C@@](C)(CO)CN3)n1 [Compound 49]		11	134	2090			
CN(C)C(=O)Cn1nc(Cl)cc1Nc1nccc(-c2cc(C#N)c3c(c2)[C@@](C)(CO)CN3)n1 [Compound 116]	9.3	269					
Cn1ccc(Nc2ncc(F)c(-c3cc(C#N)c4c(c3)[C@@](C)(CO)CN4)n2)n1 [Compound 144]	2		36	44			
Cc1csc(Nc2nccc(-c3cc(C#N)c4c(c3)[C@@](C)(CO)CN4)n2)n1 [Compound 145]	1.5		71	~3390			
Cc1nscc1Nc1nccc(-c2cc(C#N)c3c(c2)[C@@](C)(CO)CN3)n1 [Compound 146]	1.3		102	589			
Cc1coc(Nc2nccc(-c3cc(C#N)c4c(c3)[C@@](C)(CO)CN4)n2)n1 [Compound 147]	9.6		~436	~5010			
Cc1nc(Nc2nccc(-c3cc(C#N)c4c(c3)[C@@](C)(CO)CN4)n2)sc1C [Compound 148]	0.8		93	282			
CN(CCO)C[C@]1(C)CNc2c(C#N)cc(-c3ccnc(Nc4ccn(C)n4)n3)cc21 [Compound 173]	162		6030	~6310			
CN(CCO)C[C@@]1(C)CNc2c(C#N)cc(-c3ccnc(Nc4ccn(C)n4)n3)cc21 [Compound 174]	35				1550	3160	
Cc1cc(Nc2nccc(-c3cc(C#N)c4c(c3)[C@@](C)(CO)CN4)n2)n(CC(=O)N2CCCCC2)n1 [Compound 179]	6.2		832	~10000			
C[C@]1(CO)CNc2c(C#N)cc(-c3ccnc(Nc4cn(CC(F)F)nc4C(=O)N4CCCC4)n3)cc21 [Compound 189]	17	51					
CNC(=O)c1c(Nc2nccc(-c3cc(C#N)c4c(c3)[C@@](C)(CO)CN4)n2)cnn1C [Compound 190]	11.7	110					
Cn1ncc(Nc2nccc(-c3cc(C#N)c4c(c3)[C@@](C)(CO)CN4)n2)c1C(=O)N1CCCC1 [Compound 191]	107	4470					
Cn1ncc(Nc2nccc(-c3cc(C#N)c4c(c3)[C@@](C)(CO)CN4)n2)c1OC1COC1 [Compound 193]	25.1	91					
Cc1cc(Nc2nccc(-c3cc(C#N)c4c(c3)[C@@](C)(CO)CN4)n2)n(CC(=O)N(C)C)n1 [Compound 206]	2.9	31					
CC(C)Oc1nn(CCN2CCOCC2)cc1Nc1nccc(-c2cc(C#N)c3c(c2)[C@@](C)(CO)CN3)n1 [Compound 207]	15.5	93					
CN1CCN(Cc2c(Nc3nccc(-c4cc(C#N)c5c(c4)[C@@](C)(CO)CN5)n3)cnn2C)CC1 [Compound 209]	28.2	141					
CC(C)n1nc(C(=O)N(C)C2CC2)cc1Nc1nccc(-c2cc(C#N)c3c(c2)[C@@](C)(CO)CN3)n1 [Compound 211]	14.8	204					
Cc1cc(Nc2nccc(-c3cc(C#N)c4c(c3)[C@@](C)(CO)CN4)n2)n(CC2CCN(CC(=O)O)CC2)n1 [Compound 214]	18.6	2630					
Cn1ccc(Nc2ncnc(-c3cc(C#N)c4c(c3)C(C)(CO)CN4)n2)n1 (stereo not shown) [Compound 216]	7.8		537	2630			
CNC(=O)c1cc(Nc2nccc(-c3cc(C#N)c4c(c3)[C@@](C)(CO)CN4)n2)n(CC(C)C)n1 [Compound 219]	9.5	100	214				
Cn1ccc(Nc2nccc(-c3cc(C#N)c4c(c3)[C@@](C)(CN)CN4)n2)n1 [Compound 222]	12	15					
Cn1ccc(Nc2nccc(-c3cc(C#N)c4c(c3)[C@](C)(CN)CN4)n2)n1 [Compound 223]	224						269

— patent US11136311B2, “Heteroaromatic derivatives as NIK inhibitors” (Janssen Pharmaceutica NV, priority 2016, dated 2021)
